From patent publication US20110045073A1, “METHODS AND COMPOSITIONS OF SPHINGOLIPID FOR PREVENTING AND TREATING MICROBIAL INFECTIONS” (priority 2008, published 2011)

Tests used:
Format in all cases: cell-based, Candida albicans
C. albicans (ATTC 10231) [1] = assay: microdilution viability assay (plate assay, CFU count); conditions: 1 mM PPB, 60 min at 30° C., CFUs counted
Description: C. albicans (ATTC 10231), cultured aerobically at 30° C. on Sabouraud dextrose agar plates (SDA, Oxoid, Hampshire, UK) was suspended in 25 ml of Sabouraud dextrose broth in a 100 ml erlenmeyer flask. After 20 h of incubation at 30° C., 1 ml from this suspension was sub-cultured for 1-2 h in 20 ml of Sabouraud dextrose broth, to obtain a mid-log phase culture. Cells were washed twice in 1 mM potassium phosphate (PPB) or 5 mM Tris (pH 7.2), and resuspended in the same buffer to a cell density of 2 McFarland (McF) (approximately 10^7 cells/ml). The effects of PHS and Hst5 on the viability of C. albicans were determined in a microdilution viability assay. 50 μl aliquots from a mid-log phase culture of C. albicans were incubated with equal volumes of either peptide or PHS solutions (0.3 to 100 μM) and incubated at 30° C. for 60 min. The incubation mixtures were appropriately diluted (200- to 500-fold) in PBS and 25 μl aliquots were plated on SDA. After 48 h incubation at 30° C. the numbers of CFUs were counted. All experiments were repeated at least three times in duplo. The effect of PHS-treatment on the viability of C. albicans was determined in a micro-dilution viability assay, at the concentration range 0-500 μM (FIG. 1). For comparison the effect of treatment with Hst5 (0-50 μM) is shown. […]

C. albicans = assay: synergism between histatin 5 and PHS: PI fluorescence after PHS preincubation, energy-rich (NaCl) or energy-depleted (NaN3); conditions: for extent of additional increase in PI-fluorescence on addition of Hst5: 25 μM PHS preincubation
Description: C. albicans (ATTC 10231), cultured aerobically at 30° C. on Sabouraud dextrose agar plates (SDA, Oxoid, Hampshire, UK) was suspended in 25 ml of Sabouraud dextrose broth in a 100 ml erlenmeyer flask. After 20 h of incubation at 30° C., 1 ml from this suspension was sub-cultured for 1-2 h in 20 ml of Sabouraud dextrose broth, to obtain a mid-log phase culture. Cells were washed twice in 1 mM potassium phosphate (PPB) or 5 mM Tris (pH 7.2), and resuspended in the same buffer to a cell density of 2 McFarland (McF) (approximately 10^7 cells/ml). Cells were suspended in 5 mM Tris buffer (pH 7.2), supplemented with either 5 mM NaCl or 5 mM NaN3. These suspensions were subsequently incubated with 0, 10, 50 and 100 μM PHS dissolved in 5 mM Tris buffer. After 60 minutes of incubation at 30° C., PI was added, and subsequently dilution series of Hst 5 in the corresponding buffer were added. Final concentration of PI was 10 μM, final concentrations of Hst5 ranged between 0 and 50 μM, final cell density was 10^7 cells/ml and final PHS concentrations were 0, 5, 25 and 50 μM. After 0, 20, 40 and 60 minutes the PI fluorescence was monitored at excitation and emission wavelengths of 544 and 620 nm, respectively, in a Fluostar Galaxy microplate fluorimeter (BMFG Labtechnologies, Offenburg, Germany).

C. albicans (ATTC 10231) [2] = assay: membrane-disruptive activity, propidium iodide fluorescence (PI assay); conditions: 1 mM PPB, after 15 and 60 minutes
Description: C. albicans (ATTC 10231), cultured aerobically at 30° C. on Sabouraud dextrose agar plates (SDA, Oxoid, Hampshire, UK) was suspended in 25 ml of Sabouraud dextrose broth in a 100 ml erlenmeyer flask. After 20 h of incubation at 30° C., 1 ml from this suspension was sub-cultured for 1-2 h in 20 ml of Sabouraud dextrose broth, to obtain a mid-log phase culture. Cells were washed twice in 1 mM potassium phosphate (PPB) or 5 mM Tris (pH 7.2), and resuspended in the same buffer to a cell density of 2 McFarland (McF) (approximately 10^7 cells/ml).
Membrane-disruptive activity of Hst5 and phytosphingosine (PHS) was determined by monitoring the fluorescence enhancement of propidium iodide (Invitrogen, Breda, The Netherlands) in Hst5- or PHS treated cells. The membrane impermeant propidium iodide (PI) only enters membrane-compromised cells, after which the fluorescence of this probe is enhanced 20-30-fold due to its binding to nucleic acids.
Cells obtained by the method described above were suspended in 1 mM PPB buffer (pH 7.2) supplemented with PI (final concentration 10 μM) and subsequently added to two-fold serial dilutions of Hst5 (50 μM down to 0.045 μM) or PHS (500 down to 0.5 μM). Final cell density in the assay was 1 McF. […]

| Molecule | concentration at which complete killing was reached (C. albicans (ATTC 10231) [1]) | PI fluorescence induced by PHS preincubation alone (C. albicans; 25 μM PHS in the presence of NaN3, vs control with NaCl) | effect of PHS pretreatment on sensitivity of C. albicans to Hst5 (C. albicans; non-lethal dosages PHS, in particular energy-depleted conditions) | effect of PHS preincubation on Hst5-mediated influx of PI (C. albicans; preincubation with 25 or 50 μM PHS, NaCl, 6.1 μM Hst5, relative to 0 μM PHS) | concentration needed to induce uptake of PI, Hst5 compared with PHS (C. albicans (ATTC 10231) [2]) | extent of additional increase in PI-fluorescence on addition of Hst5 (C. albicans; NaCl control (energy-rich)) | extent of additional increase in PI-fluorescence on addition of Hst5 (C. albicans; NaN3 (energy-depleted)) | effect of energy-depletion on sensitivity of C. albicans to the substance (C. albicans; 5 mM NaN3 vs 5 mM NaCl in 5 mM Tris, t=0 and t=20 min) | lowest Hst5 concentration with immediate additional increase in PI fluorescence (C. albicans; after pre-incubation with 25 μM PHS, NaCl, t=0) |
| --- | --- | --- | --- | --- | --- | --- | --- | --- | --- |
| CCCCCCCCCCCCCC[C@@H](O)[C@@H](O)[C@@H](N)CO [PHS, phytosphingosine] | 250 µM | induces an increase in PI fluorescence, comparable to that of the control | increases its sensitivity to Hst5 | instantaneously accelerates the Hst5-mediated influx of PI | – | – | – | – | – |
| histatin 5 (DSHAKRHHGYKRKFHEKHHSHRGY) [Hst5] | 10 µM | – | – | – | induced the uptake of PI at much lower concentrations | 1000 fluorescence units | approx 500 fluorescence units | energy-depletion protects C. albicans against Hst5 | 0.75 µM |
